Data published in patent US20190276793A1, “Methods and Apparatus for Regulation of Gene Expression Across a Large-Scale Solid Structure” (Massachusetts Institute of Technology, priority 2018, published 2019).

Test system: E. coli strain IPTG/GFP
Experiment: GFP induction by cured chemical signaling resin in the IPTG/GFP reporter strain
Format: cell-based
Settings: IPTG 2.0 M, after UV-curing
Source text: In some use cases, this prototype facilitates fluorometric assays of gene expression as follows: Strains with fluorescent protein outputs are constructed. The strains IPTG/GFP, AHL/GFP, and RHA/GFP each express a green fluorescent protein (GFP) under the control of promoters LacI, LuxR, and RhaBAD when induced by the chemicals IPTG, N-acyl homoserine lactone (AHL), Rhamnose (RHA), respectively. For orthogonal AHL and IPTG patterning, the strain AHL/RFP is also cloned to produce a differentiable red fluorescent protein (RFP) under AHL-inducible control. Also, gene constructs using combinatorial promoters (where IPTG.AHL/GFP equated to NAND logic function and IPTG.AHL/GFP equated to AND logic function) were cloned for HLM objects performing spatial patterning from two-input cell logic. These transcriptional regulators may be utilized for multi-signal pattern generation.
In a test of this prototype, different photopolymer resins (with embedded chemical signaling molecules) were created by mixing incremental concentrations and ratios of DMSO-solubilized inducer, IPTG, and uncured resin in low light. To rapidly manufacture test pieces, a VeroClear™ RGD810 tray was printed with 3×3 circular wells (10 mm diameter, 3 mm depth). […]

CC(C)S[C@@H]1O[C@H](CO)[C@H](O)[C@H](O)[C@H]1O [IPTG, Isopropyl β-D-1-thiogalactopyranoside]
induction in E. coli strain IPTG/GFP: robust induction
